According to ChEMBL document CHEMBL2163318, “Phenylalanine derivatives as GPR142 agonists for the treatment of type II diabetes” (Bioorg Med Chem Lett, 2012):
Values belong to the compound of their own block, whether it stands above or below them. Activity calls are given as the source filed them. The rule behind the calls is not given here.

What was measured:
[1] = Clearance in rat at 0.67 mg/kg, iv; assay type: ADME, organism-based; set-up: dose 0.67 mg/kg, route intravenous; settings: in vivo
[2] = AUC in rat at 0.67 mg/kg, iv; assay type: ADME, organism-based; set-up: dose 0.67 mg/kg, route intravenous; settings: plasma
[3] = Volume of distribution at steady state in rat at 0.67 mg/kg, iv; assay type: ADME, organism-based; set-up: dose 0.67 mg/kg, route intravenous; settings: in vivo, read-out: Vdss
[4] = Half life in rat at 0.67 mg/kg, iv; assay type: ADME, organism-based; set-up: dose 0.67 mg/kg, route intravenous; settings: in vivo
[5] = AUC in rat at 2 mg/kg, po; assay type: ADME, organism-based; set-up: dose 2 mg/kg, route oral; settings: plasma
[6] = Mean residence time in rat at 2 mg/kg, po; assay type: ADME, organism-based; set-up: dose 2 mg/kg, route oral; settings: in vivo
[7] = Oral bioavailability in rat at 2 mg/kg; assay type: ADME, organism-based; settings: in vivo
[8] = target: T1, Probable G-protein coupled receptor 142 (Homo sapiens) (UniProt Q7Z601); experiment: Agonist activity at human GPR142 expressed in HEK293 cells assessed as inositol phosphate accumulation after 1 hr by scintillation counting in presence of 100% serum; assay type: functional, cell-based
T1 sequence (whole entry): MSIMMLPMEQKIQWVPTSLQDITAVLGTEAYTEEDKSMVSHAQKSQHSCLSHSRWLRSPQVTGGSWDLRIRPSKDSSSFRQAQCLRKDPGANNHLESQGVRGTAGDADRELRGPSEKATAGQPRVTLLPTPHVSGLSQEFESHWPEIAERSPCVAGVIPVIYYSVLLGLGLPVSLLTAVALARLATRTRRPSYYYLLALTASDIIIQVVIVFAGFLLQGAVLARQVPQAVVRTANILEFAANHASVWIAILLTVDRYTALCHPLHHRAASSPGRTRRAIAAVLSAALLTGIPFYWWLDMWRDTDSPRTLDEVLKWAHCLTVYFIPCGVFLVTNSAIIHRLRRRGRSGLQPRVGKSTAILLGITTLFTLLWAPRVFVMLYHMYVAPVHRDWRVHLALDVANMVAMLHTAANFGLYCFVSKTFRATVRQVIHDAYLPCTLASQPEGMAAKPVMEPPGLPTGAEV

[9] = Metabolic stability of rat microsomes assessed as compound turnover at 1 uM after 30 mins by LC-MS analysis; assay type: ADME, Microsome; settings: read-out: Drug metabolism
[10] = Metabolic stability of human microsomes assessed as compound turnover at 1 uM after 30 mins by LC-MS analysis; assay type: ADME, Microsome; settings: read-out: Drug metabolism
[11] = target: T1, Probable G-protein coupled receptor 142 (Homo sapiens); experiment: Agonist activity at human GPR142 expressed in HEK293 cells assessed as inositol phosphate accumulation at 10 uM after 1 hr by scintillation counting; assay type: functional, cell-based
[12] = target: T2, Probable G-protein coupled receptor 142 (Homo sapiens, UniProt Q7Z601); experiment: Agonist activity at human GPR142 expressed in HEK293 cells assessed as inositol phosphate accumulation after 1 hr by scintillation counting; assay type: functional, cell-based
T2 sequence (Q7Z601 whole entry): T1 sequence (whole entry)

[13] = target: T3, Probable G-protein coupled receptor 142 (Mus musculus) (UniProt Q7TQN9); experiment: Partial agonist activity at mouse GPR142 expressed in HEK293 cells relative to control; assay type: functional, cell-based
T3 sequence (whole entry): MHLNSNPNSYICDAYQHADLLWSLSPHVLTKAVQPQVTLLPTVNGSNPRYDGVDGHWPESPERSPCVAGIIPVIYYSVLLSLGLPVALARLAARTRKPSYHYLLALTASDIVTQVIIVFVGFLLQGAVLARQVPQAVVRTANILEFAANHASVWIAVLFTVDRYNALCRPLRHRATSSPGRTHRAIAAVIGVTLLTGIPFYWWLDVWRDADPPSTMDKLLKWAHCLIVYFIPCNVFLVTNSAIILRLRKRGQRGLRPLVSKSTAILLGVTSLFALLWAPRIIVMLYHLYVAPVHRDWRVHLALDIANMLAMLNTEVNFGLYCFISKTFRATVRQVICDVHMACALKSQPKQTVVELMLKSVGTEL

[14] = Clearance in rat; assay type: ADME, organism-based; settings: in vivo
[15] = Clearance in rat at 0.5 mg/kg, iv; assay type: ADME, organism-based; set-up: dose 0.5 mg/kg, route intravenous; settings: in vivo
[16] = AUC in rat at 0.5 mg/kg, iv; assay type: ADME, organism-based; set-up: dose 0.5 mg/kg, route intravenous; settings: plasma
[17] = Volume of distribution at steady state in rat at 0.5 mg/kg, iv; assay type: ADME, organism-based; set-up: dose 0.5 mg/kg, route intravenous; settings: in vivo, read-out: Vdss
[18] = Half life in rat at 0.5 mg/kg, iv; assay type: ADME, organism-based; set-up: dose 0.5 mg/kg, route intravenous; settings: in vivo

Compound: CNc1cc(-c2nnc(NC(=O)[C@H](Cc3ccccc3)NCc3cscn3)s2)ccn1
clearance [1]: 0.23 L/h/kg
AUC [2]: 3.03 µg·h/mL
Vd [3]: 0.23 L/kg
half-life [4]: 1.2 h
AUC [5]: 1.73 µg·h/mL
MRT [6]: 2.36 h
bioavailability [7]: 36%
Activity [8]: inactive
metabolised at 0.5 h, 1 µM [9]: 66%
metabolised at 0.5 h, 1 µM [10]: 58%
Emax [11]: 96%
EC50 [12]: 0.036 µM
Emax [13]: 37%

Compound: COc1ncc(-c2ccncc2)cc1NC(=O)[C@H](Cc1ccccc1)NC1(c2ccccn2)CC1
clearance [14]: 1.3 L/h/kg
Activity [8]: inactive
metabolised at 0.5 h, 1 µM [9]: 54%
metabolised at 0.5 h, 1 µM [10]: 15%
Emax [11]: 123%
EC50 [12]: 0.35 µM

The next lines start with the values.

clearance [14]: 5 L/h/kg
metabolised at 0.5 h, 1 µM [9]: 12%
metabolised at 0.5 h, 1 µM [10]: 10%
Emax [11]: 83%
EC50 [12]: 0.26 µM
Compound: O=C(O)Cn1cc(-c2ccncc2)cc(NC(=O)[C@H](Cc2ccccc2)NC2(c3ccccn3)CC2)c1=O

clearance [15]: 0.44 L/h/kg
AUC [16]: 1.24 µg·h/mL
Vd [17]: 0.21 L/kg
half-life [18]: 1.2 h
AUC [5]: 0.48 µg·h/mL
MRT [6]: 1.93 h
bioavailability [7]: 10%
Activity [8]: Active
metabolised at 0.5 h, 1 µM [9]: 10%
metabolised at 0.5 h, 1 µM [10]: 14%
Emax [11]: 115%
EC50 [12]: 0.086 µM
Compound: O=C(Nc1nnc(-c2ccncc2)s1)[C@H](Cc1ccccc1)NCc1cscn1

clearance [14]: 3.1 L/h/kg
metabolised at 0.5 h, 1 µM [9]: 22%
metabolised at 0.5 h, 1 µM [10]: 19%
Emax [11]: 118%
EC50 [12]: 0.28 µM
Compound: CN(C)CCn1cc(-c2ccncc2)cc(NC(=O)[C@H](Cc2ccccc2)NC2(c3ccccn3)CC2)c1=O
